These results are taken from patent publication US20120232070A1, “Use of Indole Derivatives as Nurr-1 Activators for the Application Thereof as a Medicament for the Treatment of Parkinson's Disease” (Laboratoires Fournier SA, priority 2009, published 2012).

Bounds are passed on as bounds.

Test [1] addresses hNurr1_RXRαFL (NURR1/RXRα heterodimer) (Homo sapiens, UniProt P19793+P43354). Nature of the test: Transactivation assay in Cos-7 cells, NURR-1-Gal4 / RXRα, luciferase reporter. The settings on record: for Emax: COS-7, read-out: hNurr1_RXRαFL Eff (%), efficacy in % relative to the reference XCT0135908 at 2·10^−5 M (=100%); for EC50: Cos-7 cells, overnight incubation. Format: cell-based. Put shortly:
(§1)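 Cos-7 cells co-transfected with human NURR-1-Gal4 chimera, human RXRα or RXRγ, and 5Gal4pGL3-TK-Luc reporter; compounds added at 10^−4 to 3·10^−10 M final, overnight incubation, luciferase read. Induction over each heterodimer's baseline expressed as % of reference RXR agonist XCT0135908 (2·10^−5 M) taken as 100%.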
A general note: In a reporter assay the amount or activity of a reporter protein is the signal.

In test [2] the target is hNurr1_RXRγFL (NURR1/RXRγ heterodimer) (Homo sapiens, UniProt P43354+P48443). As to the kind of experiment: Transactivation assay in Cos-7 cells, NURR-1-Gal4 / RXRγ, luciferase reporter. The test is classed as cell-based. The settings on record: for Emax: COS-7, read-out: hNurr1_RXRγFL Eff (%), efficacy in % relative to the reference XCT0135908 at 2·10^−5 M (=100%); for EC50: Cos-7 cells, overnight incubation. Put shortly:
as §1

Sequence of hNurr1_RXRγFL (NURR1/RXRγ heterodimer) (P43354 328-598): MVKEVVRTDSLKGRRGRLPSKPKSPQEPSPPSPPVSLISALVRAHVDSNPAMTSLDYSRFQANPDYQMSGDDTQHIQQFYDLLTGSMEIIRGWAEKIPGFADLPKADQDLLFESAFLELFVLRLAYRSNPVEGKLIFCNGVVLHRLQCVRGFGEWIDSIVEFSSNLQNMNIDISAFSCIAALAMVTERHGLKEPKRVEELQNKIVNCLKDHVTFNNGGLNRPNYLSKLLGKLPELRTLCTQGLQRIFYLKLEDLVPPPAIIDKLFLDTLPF
Sequence of hNurr1_RXRγFL (NURR1/RXRγ heterodimer) (P48443 whole entry, the tested form may be a part): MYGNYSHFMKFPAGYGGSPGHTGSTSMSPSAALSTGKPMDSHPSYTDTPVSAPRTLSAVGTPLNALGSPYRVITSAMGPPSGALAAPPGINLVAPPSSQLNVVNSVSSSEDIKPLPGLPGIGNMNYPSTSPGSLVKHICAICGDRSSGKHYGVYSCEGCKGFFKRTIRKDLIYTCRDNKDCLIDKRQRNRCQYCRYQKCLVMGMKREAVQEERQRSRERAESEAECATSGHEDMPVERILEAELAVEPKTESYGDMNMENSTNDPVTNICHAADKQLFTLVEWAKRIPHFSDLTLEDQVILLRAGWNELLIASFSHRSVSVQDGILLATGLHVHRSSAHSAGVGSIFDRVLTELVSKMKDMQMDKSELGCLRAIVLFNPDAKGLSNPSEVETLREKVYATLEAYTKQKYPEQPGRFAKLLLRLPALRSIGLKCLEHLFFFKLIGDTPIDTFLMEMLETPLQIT
Sequence of hNurr1_RXRαFL (NURR1/RXRα heterodimer) (P19793 whole entry, the tested form may be a part): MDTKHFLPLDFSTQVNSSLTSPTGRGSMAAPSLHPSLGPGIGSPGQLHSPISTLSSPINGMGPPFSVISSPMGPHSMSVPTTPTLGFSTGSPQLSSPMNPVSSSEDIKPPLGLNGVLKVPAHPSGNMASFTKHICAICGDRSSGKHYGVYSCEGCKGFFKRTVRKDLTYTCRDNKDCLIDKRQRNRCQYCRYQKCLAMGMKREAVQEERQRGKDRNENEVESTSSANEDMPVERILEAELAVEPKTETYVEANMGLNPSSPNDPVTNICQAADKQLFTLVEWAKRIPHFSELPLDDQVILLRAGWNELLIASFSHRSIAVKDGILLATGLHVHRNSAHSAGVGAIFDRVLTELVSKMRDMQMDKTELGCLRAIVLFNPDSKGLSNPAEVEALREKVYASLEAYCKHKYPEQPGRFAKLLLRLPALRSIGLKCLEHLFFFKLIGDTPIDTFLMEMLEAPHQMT
Sequence of hNurr1_RXRαFL (NURR1/RXRα heterodimer) (P43354 328-598): as the sequence (P43354 328-598) above

In general, EC50 refers to the concentration giving half of the maximal effect. A lower EC50 goes with an effect from little substance. Consider `O=C(O)c1ccc(Cc2cc3cc(C(F)(F)F)ccc3n2S(=O)(=O)c2ccc(OC(F)F)c(Cl)c2)cc1` [Example 124, 4-[[1-[3-chloro-4-difluoromethoxy-phenylsulfonyl]-5-(trifluoromethyl)-1H-indol-2-yl]methyl]benzoic acid], for which the Emax in test [1] was 59%; in test [2], 44%. Besides, the EC50 in test [1] was found to be 349 nM; in test [2], 697 nM.
`O=C(O)c1ccc(Cc2cc3cc(Cl)ccc3n2S(=O)(=O)c2cccc(F)c2)cc1` [Example 154, 4-[[1-[3-fluoro-phenylsulfonyl]-5-(chloro)-1H-indol-2-yl]methyl]benzoic acid]: in test [1], the Emax was 68% and the EC50 was 472 nM. In addition, in test [2], the Emax was 66% and the response was half-maximal at 1360 nM (EC50).
For `CC1(C)CCc2cc(S(=O)(=O)n3c(Cc4ccc(C(=O)O)cc4)cc4cc(C(F)(F)F)ccc43)ccc2O1` [Example 132, 4-[[1-[(3,4-dihydro-2,2-dimethyl-2H-1-benzopyran-6-yl)sulfonyl]-5-(trifluoromethyl)-1H-indol-2-yl]methyl]benzoic acid], in that order: 45%, 221 nM, 28% and 352 nM.
For `CC(C)(C)c1cccc(S(=O)(=O)n2c(Cc3ccc(C(=O)O)c(Cl)c3)cc3cc(C(F)(F)F)ccc32)c1` [Example 206, 4-[[1-[[3-(1,1-dimethylethyl)-phenyl]sulfonyl]-5-trifluoromethyl-1H-indol-2-yl]methyl]-2-chlorobenzoic acid], in that order: 71%, 174 nM, 85% and 363 nM.
For `O=C(O)c1ccc(Cc2cc3cc(Cl)ccc3n2S(=O)(=O)c2cccc(Cl)c2)cc1` [Example 164, 4-[[1-[3-chloro-phenylsulfonyl]-5-(chloro)-1H-indol-2-yl]methyl]benzoic acid], in that order: 53%, 753 nM, 47% and 851 nM.
As to `Cc1cccc(S(=O)(=O)n2c(Cc3ccc(C(=O)O)cc3)cc3cc(Cl)ccc32)c1` [Example 161, 4-[[5-chloro-1-[(3-methylphenyl)sulfonyl]-1H-indol-2-yl]methyl]benzoic acid], in test [1], the Emax stood at 59% and the response was half-maximal at 460 nM (EC50). For the same molecule, in test [2], the Emax was 40% and the midpoint of the response, the EC50, lay at 584 nM.
For `Cc1cc(S(=O)(=O)n2c(Cc3ccc(C(=O)O)cc3)cc3cc(C(F)(F)F)ccc32)ccc1Cl` [Example 121, 4-[[1-[4-chloro-3-methyl-phenylsulfonyl]-5-(trifluoromethyl)-1H-indol-2-yl]methyl]benzoic acid], in that order: 65%, 192 nM, 56% and 433 nM.
The matching figures for `O=C(O)c1ccc(Cc2cc3cc(Cl)ccc3n2S(=O)(=O)c2ccc3c(c2)OCO3)cc1` [Example 174, 4-[[1-(1.3-benzodioxol-5-ylsulfonyl)-5-chloro-1H-indol-2-yl]methyl]benzoic acid]: 47%, 593 nM, 37% and 813 nM.
`Cc1c(Cc2nc(C(=O)O)cs2)n(S(=O)(=O)c2cccc(C(C)(C)C)c2)c2ccc(C(F)(F)F)cc12` [Example 86, 2-[[1-[[3-(1,1-dimethylethyl)-phenyl]sulfonyl]-3-methyl-5-(trifluoro-methyl)-1H-indol-2-yl]methyl]-thiazole-4-carboxylic acid]: in test [1], the Emax came to 56% and the EC50 was 490 nM. For the same molecule, in test [2], the Emax worked out at 34% and a half-maximal response (EC50) required 1480 nM.
As for `Cc1cc(Cc2cc3cc(C(F)(F)F)ccc3n2S(=O)(=O)c2cccc(C(C)(C)C)c2)c(F)cc1C(=O)O` [Example 196, 4-[[1-[[3-(1,1-dimethylethyl)phenyl]sulfonyl]-5-trifluoromethyl-1H-indol-2-yl]methyl]-5-fluoro-2-methyl-benzoic acid], in test [1], the Emax was 90% and the 50% effective concentration (EC50) stood at 240 nM. Also, in test [2], the Emax came out at 91% and a half-maximal response (EC50) required 479 nM.
Regarding `O=C(O)c1ccc(Cc2cc3cc(Cl)ccc3n2S(=O)(=O)c2ccc(F)c(Cl)c2)cc1` [Example 150, 4-[[1-[3-chloro-4-fluoro-phenylsulfonyl]-5-(chloro)-1H-indol-2-yl]methyl]benzoic acid], in test [1], the Emax was 103% and the response was half-maximal at 299 nM (EC50). In test [2], the Emax amounted to 96% and the EC50 was determined as 501 nM.
The matching figures for `Cc1c(Cc2cccc(C(=O)O)c2)n(S(=O)(=O)c2cccc(C(C)(C)C)c2)c2ccc(C(F)(F)F)cc12` [Example 186, 3-[[1-[[3-(1,1-dimethylethyl)phenyl]sulfonyl]-3-methyl-5-(trifluoromethyl)-1H-indol-2-yl]methyl]-benzoic acid]: 93%, 124 nM, 68% and 288 nM.
The matching figures for `Cc1cc(C(=O)O)ccc1Cc1cc2cc(C(F)(F)F)ccc2n1S(=O)(=O)c1cccc(C(C)(C)C)c1` [Example 197, 4-[[1-[[3-(1,1-dimethylethyl)phenyl]sulfonyl]-5-trifluoromethyl-1H-indol-2-yl]methyl]-3-methyl-benzoic acid]: 68%, 278 nM, 52% and 592 nM.
Turning to `O=C(O)c1ccc(Cc2cc3cc(Cl)ccc3n2S(=O)(=O)c2ccc(Cl)cc2)cc1` [Example 160, 4-[[1-[4-chloro-phenylsulfonyl]-5-(chloro)-1H-indol-2-yl]methyl]benzoic acid], in test [1], the Emax is 59% and the half-maximal effective concentration (EC50) is 462 nM. Besides, in test [2], the Emax worked out at 55% and the EC50 turned out to be 1390 nM.
For `Cn1ccc(-c2cccc(S(=O)(=O)n3c(Cc4ccc(C(=O)O)cc4)cc4cc(C(F)(F)F)ccc43)c2)n1` [Example 18, 4-[[1-[[3-(1-methyl-1H-pyrazol-3-yl)phenyl]sulfonyl]-5-(trifluoromethyl)-1H-indol-2-yl]methyl]benzoic acid], in that order: 60%, 407 nM, 34% and 668 nM.
As to `CC(C)(CO)c1cccc(S(=O)(=O)n2c(Cc3ccc(C(=O)O)cc3)cc3cc(C(F)(F)F)ccc32)c1` [Example 231, 4-[[1-[[3-(2-hydroxy-1,1-dimethylethyl)phenyl]sulfonyl]-5-(trifluoromethyl)-1H-indol-2-yl]methyl]benzoic acid], in test [1], the Emax came out at 81% and a half-maximal effect (EC50) was put at 65 nM. Further, in test [2], the Emax is 62% and the EC50 was 164 nM.
For `O=C(O)c1ccc(Cc2cc3cc(Cl)ccc3n2S(=O)(=O)c2cc3ccccc3o2)cc1` [Example 177, 4-[[1-[benzofuran-2-sulfonyl]-5-(chloro)-1H-indol-2-yl]methyl]benzoic acid], in that order: 39%, over 10000 nM, 17% and over 10000 nM.
In the case of `CC(C)(C)c1cccc(S(=O)(=O)n2c(Cc3cccc(C(=O)O)c3)cc3cc(C(F)(F)F)ccc32)c1` [Example 8, 3-[[1-[[3-(1,1-dimethylethyl)phenyl]sulfonyl]-5-(trifluoromethyl)-1H-indol-2-yl]methyl]benzoic acid], in test [1], the Emax turned out to be 96% and the midpoint of the response, the EC50, lay at 101 nM. Besides, in test [2], the Emax came to 74% and the EC50 was found to be 99 nM.
The matching figures for `O=C(O)c1ccc(Cc2cc3cc(C(F)(F)F)ccc3n2S(=O)(=O)c2ccc(Oc3ccccc3)cc2)cc1` [Example 144, 4-[[1-[4-phenoxy-phenylsulfonyl]-5-(trifluoromethyl)-1H-indol-2-yl]methyl]benzoic acid]: 30%, 839 nM, 19% and over 10000 nM.
The matching figures for `CN1CCOc2ccc(S(=O)(=O)n3c(Cc4ccc(C(=O)O)cc4)cc4cc(C(F)(F)F)ccc43)cc21` [Example 45, 4-[[1-[(3,4-dihydro-4-methyl-2H-1,4-benzoxazin-6-yl)sulfonyl]-5-(trifluoromethyl)-1H-indol-2-yl]methyl]benzoic acid]: 70%, 97 nM, 50% and 201 nM.
For `CC(C)c1ccc(S(=O)(=O)n2c(Cc3ccc(C(=O)O)c(O)c3)cc3cc(Cl)ccc32)cc1` [Example 99, 4-[[5-chloro-1-[[4-(1-methylethyl)phenyl]sulfonyl]-1H-indol-2-yl]methyl]-2-hydroxybenzoic acid], in that order: 50%, 569 nM, 42% and 989 nM.
In the case of `O=C(O)c1cncc(Cc2cc3cc(Cl)ccc3n2S(=O)(=O)c2ccc3c(c2)OCCO3)c1` [Example 213, 3-[[1-[(2,3-dihydro-benzo[1,4]dioxin-6-yl)sulfonyl]-5-chloro-1H-indol-2-yl]methyl]-5-pyridine carboxylic acid], in test [1], the Emax is 45% and the response was half-maximal at 3000 nM (EC50). In test [2], the Emax is 31% and the EC50 was over 10000 nM.
The matching figures for `O=C(O)c1ccc(Cc2cc3cc(C(F)(F)F)ccc3n2S(=O)(=O)c2ccc(Cl)cc2)cc1` [Example 136, 4-[[1-[4-chloro-phenylsulfonyl]-5-(trifluoromethyl)-1H-indol-2-yl]methyl]benzoic acid]: 35%, 275 nM, 25% and over 10000 nM.
